# Measurements from patent US12077503B2, “Substituted cyclic amides and their use as herbicides” (FMC CORPORATION, priority 2015, dated 2024).
# Tests used:
# Type in all cases: in vivo
# [1] = tested on: ryegrass, Italian (Italian ryegrass, Lolium multiflorum); test: Test A preemergence; conditions: Lolium multiflorum, pre-emergence, 240 h, 0 to 100 scale where 0 is no effect and 100 is complete control, read-out: Ryegrass, Italian plant response rating
# Summary of the method: (§1)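 Visual injury, scored on a 0–100 scale relative to untreated controls, was recorded about 10 d after application. Treatments were a preemergence soil spray over planted seeds or a postemergence spray on plants at the one- to two-leaf stage, 2 to 10 cm tall, all in loam soil–sand blend in the greenhouse.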
# [2] = tested on: giant foxtail (Setaria faberii); test: Test A preemergence; conditions: Setaria faberi, pre-emergence, 240 h, 0 to 100 scale where 0 is no effect and 100 is complete control, read-out: Foxtail, Giant plant response rating
# Summary of the method: as §1
# [3] = tested on: pigweed (Amaranthus retroflexus); test: Test A preemergence; conditions: Amaranthus retroflexus, pre-emergence, 240 h, 0 to 100 scale where 0 is no effect and 100 is complete control, read-out: Pigweed plant response rating
# Kochia (Kochia scoparia) [4] = test: Test A preemergence; conditions: Bassia scoparia, pre-emergence, 240 h, 0 to 100 scale where 0 is no effect and 100 is complete control, read-out: Kochia plant response rating
# Summary of the method: as §1
# [5] = tested on: barnyardgrass (Echinochloa crus-galli); test: Test A preemergence; conditions: Echinochloa crus-galli, pre-emergence, 240 h, 0 to 100 scale where 0 is no effect and 100 is complete control, read-out: Barnyardgrass plant response rating
# Summary of the method: as §1
# [6] = tested on: ragweed (common ragweed, Ambrosia elatior); test: Test A preemergence; conditions: Ambrosia artemisiifolia, pre-emergence, 240 h, 0 to 100 scale where 0 is no effect and 100 is complete control, read-out: Ragweed plant response rating
# Summary of the method: as §1
# [7] = tested on: wheat (Triticum aestivum); test: Test A postemergence; conditions: Triticum aestivum, post-emergence, 240 h, Postemergence, 31 g ai/ha; 0 is no effect, 100 is complete control; read-out: Wheat plant response rating (0 to 100 scale)
# Summary of the method: as §1
# [8] = tested on: ryegrass, Italian (Italian ryegrass, Lolium multiflorum); test: Test A postemergence; conditions: Lolium multiflorum, post-emergence, 240 h, read-out: Ryegrass, Italian plant response rating (0 to 100 scale)
# Summary of the method: as §1
# [9] = tested on: blackgrass (Alopecurus myosuroides); test: Test A postemergence; conditions: Alopecurus myosuroides, post-emergence, 240 h, read-out: Blackgrass plant response rating (0 to 100 scale)
# Summary of the method: as §1
# [10] = tested on: giant foxtail (Setaria faberii); test: Test A postemergence; conditions: Setaria faberi, post-emergence, 240 h, read-out: Foxtail, Giant plant response rating (0 to 100 scale)
# Summary of the method: as §1
# [11] = tested on: Galium (catchweed bedstraw, Galium aparine); test: Test A postemergence; conditions: Galium, post-emergence, 240 h, read-out: Galium plant response rating (0 to 100 scale)
# Summary of the method: as §1
# [12] = tested on: pigweed (Amaranthus retroflexus); test: Test A postemergence; conditions: Amaranthus retroflexus, post-emergence, 240 h, read-out: Pigweed plant response rating (0 to 100 scale)
# Summary of the method: as §1
# Kochia (Kochia scoparia) [13] = test: Test A postemergence; conditions: Bassia scoparia, post-emergence, 240 h, read-out: Kochia plant response rating (0 to 100 scale)
# Summary of the method: as §1
# corn (Zea mays) = test: Test A postemergence; conditions: Zea mays, post-emergence, 240 h, read-out: Corn plant response rating (0 to 100 scale)
# Summary of the method: as §1
# [14] = tested on: barnyardgrass (Echinochloa crus-galli); test: Test A postemergence; conditions: Echinochloa crus-galli, post-emergence, 240 h, read-out: Barnyardgrass plant response rating (0 to 100 scale)
# Summary of the method: as §1
# [15] = tested on: ragweed (common ragweed, Ambrosia elatior); test: Test A postemergence; conditions: Ambrosia artemisiifolia, post-emergence, 240 h, read-out: Ragweed plant response rating (0 to 100 scale)
# Summary of the method: as §1
# [16] = tested on: barnyardgrass (Echinochloa crus-galli); test: Test B flooded paddy test; conditions: Echinochloa crus-galli, 250 g ai/ha, Flood; 0 to 100 scale where 0 is no effect and 100 is complete control; read-out: Barnyardgrass plant response rating
# Summary of the method: (§2)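 Visual ratings (0 none to 100 complete control) are relative to untreated plants, taken 13–15 d after treatment in a greenhouse. Test material went straight into floodwater standing 3 cm above the soil, kept constant, on plants at the 2-leaf stage.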
# [17] = tested on: sedge, umbrella (small-flower umbrella sedge, Cyperus difformis); test: Test B flooded paddy test; conditions: Cyperus difformis, 250 g ai/ha, Flood; 0 to 100 scale where 0 is no effect and 100 is complete control; read-out: Sedge, Umbrella plant response rating
# Summary of the method: as §2
# rice (Oryra sativa) = test: Test B flooded paddy test; conditions: Oryza sativa, 250 g ai/ha, Flood; 0 to 100 scale where 0 is no effect and 100 is complete control; read-out: Rice plant response rating
# Summary of the method: as §2
# [18] = tested on: ducksalad (Heteranthera limosa); test: Test B flooded paddy test; conditions: Heteranthera limosa, 250 g ai/ha, Flood; 0 to 100 scale where 0 is no effect and 100 is complete control; read-out: Ducksalad plant response rating
# Summary of the method: as §2
# [19] = 125 g ai/ha, preemergence, visual injury rating, approximately 10 d
# [20] = 125 g ai/ha, postemergence, visual injury vs untreated controls after approx. 10 d, 0 = no effect, 100 = complete control
# [21] = Postemergence, 31 g ai/ha, 0 is no effect, 100 is complete control
smiles,measurement,setting,value
Cc1c(F)cccc1NC(=O)[C@H]1C(=O)N(C)C[C@@H]1c1ccc(C(F)F)cc1 [Compound 1261],pest or weed control at 31 g/ha,"[1]; 31 g ai/ha, Preemergence",20%
same,pest or weed control at 125 g/ha,[1]; [19],30%
same,pest or weed control at 31 g/ha,"[2]; 31 g ai/ha, Preemergence",90%
same,pest or weed control at 125 g/ha,[2]; [19],90%
same,pest or weed control at 31 g/ha,"[3]; 31 g ai/ha, Preemergence",0%
same,pest or weed control at 125 g/ha,[3]; [19],20%
same,pest or weed control at 31 g/ha,"Kochia (Kochia scoparia) [4]; 31 g ai/ha, Preemergence",70%
same,pest or weed control at 125 g/ha,Kochia (Kochia scoparia) [4]; [19],80%
same,pest or weed control at 31 g/ha,"[5]; 31 g ai/ha, Preemergence",90%
same,pest or weed control at 125 g/ha,[5]; [19],90%
same,pest or weed control at 31 g/ha,"[6]; 31 g ai/ha, Preemergence",50%
same,pest or weed control at 125 g/ha,[6]; [19],50%
same,plant injury at 31 g/ha,[7],20%
same,pest or weed control at 125 g/ha,[8]; [20],50%
same,pest or weed control at 31 g/ha,[8]; [21],20%
same,pest or weed control at 125 g/ha,[9]; [20],60%
same,pest or weed control at 31 g/ha,[9]; [21],40%
same,pest or weed control at 125 g/ha,[10]; [20],90%
same,pest or weed control at 31 g/ha,[10]; [21],90%
same,pest or weed control at 125 g/ha,[11]; [20],60%
same,pest or weed control at 31 g/ha,[11]; [21],50%
same,pest or weed control at 125 g/ha,[12]; [20],30%
same,pest or weed control at 31 g/ha,[12]; [21],0%
same,pest or weed control at 125 g/ha,Kochia (Kochia scoparia) [13]; [20],50%
same,pest or weed control at 31 g/ha,Kochia (Kochia scoparia) [13]; [21],20%
same,plant injury at 125 g/ha,corn (Zea mays); [20],80%
same,plant injury at 31 g/ha,corn (Zea mays); [21],50%
same,pest or weed control at 125 g/ha,[14]; [20],90%
same,pest or weed control at 31 g/ha,[14]; [21],90%
same,pest or weed control at 125 g/ha,[15]; [20],30%
same,pest or weed control at 31 g/ha,[15]; [21],0%
same,pest or weed control at 250 g/ha,[16],75%
same,pest or weed control at 250 g/ha,[17],0%
same,pest or weed control at 250 g/ha,rice (Oryra sativa),50%
same,pest or weed control at 250 g/ha,[18],100%
